According to ChEMBL document CHEMBL1201862, “PubChem BioAssay data set” (2004):
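A five-concentration, 48-hour dose response in 96-well plates underlies each endpoint, interpolated linearly between surrounding concentrations. GI50 = concentration required for 50% inhibition of growth.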 Activity calls are given as the source filed them. Rule as the data show it: active = GI50 up to about 1.1 µM and inactive = higher.

Columns and labels:
Assay in all cases: inhibition of tumour cell growth, NCI panel, 48 h
[1] = tested on: SNB-75
[2] = tested on: KM12
[3] = tested on: EKVX
[4] = tested on: HOP-62
[5] = tested on: CCRF-CEM
[6] = tested on: NCI-H226
[7] = tested on: SK-MEL-5
[8] = tested on: U-251
[9] = tested on: UACC-62
[10] = tested on: MDA-MB-231
[11] = tested on: UO-31
[12] = tested on: OVCAR-5
[13] = tested on: NCI-H522
[14] = tested on: TK-10
[15] = tested on: DMS-114
[16] = tested on: NCI-H23
[17] = tested on: BT-549
[18] = tested on: OVCAR-8
[19] = tested on: SF-295
[20] = tested on: OVCAR-3

| SMILES | GI50 [1] | GI50 [2] | GI50 [3] | GI50 [4] | GI50 [5] | GI50 [6] | GI50 [7] | GI50 [8] | GI50 [9] | GI50 [10] | GI50 [11] | GI50 [12] | GI50 [13] | GI50 [14] | GI50 [15] | GI50 [16] | GI50 [17] | GI50 [18] | GI50 [19] | GI50 [20] |
| --- | --- | --- | --- | --- | --- | --- | --- | --- | --- | --- | --- | --- | --- | --- | --- | --- | --- | --- | --- | --- |
| CCCCCCCCCC[S+]([O-])CC(CO)NC(=O)/C=C/c1c(C)nc(O)nc1O (centres undefined) | 0.272 µM (active) | 0.202 µM (active) | 0.774 µM (active) | 1.06 µM (active) | 0.136 µM (active) | 0.8 µM (active) | 0.918 µM (active) | 0.132 µM (active) | 0.628 µM (active) | 2.97 µM (inactive) | 1.28 µM (inactive) | 1.71 µM (inactive) | 0.0938 µM (active) | 1.76 µM (inactive) | 0.152 µM (active) | 0.504 µM (active) | 10.5 µM (inactive) |  |  |  |
| CCN(CC)CCC(=O)N1C/C(=C/c2ccccc2)C(=O)/C(=C\c2ccccc2)C1 | 4.08 µM (inactive) | 0.541 µM (active) | 3.42 µM (inactive) | 13.2 µM (inactive) | 0.219 µM (active) | 5.32 µM (inactive) | 1.76 µM (inactive) | 0.762 µM (active) | 2.03 µM (inactive) | 0.845 µM (active) | 1.71 µM (inactive) | 3.45 µM (inactive) | 0.746 µM (active) | 6.58 µM (inactive) | 1.79 µM (inactive) | 1.42 µM (inactive) | 0.363 µM (active) | 1.35 µM (inactive) | 2.11 µM (inactive) | 3.06 µM (inactive) |
| CCCCCCCCCCCCCC(=O)OC(/C=C/C(C)C)C(O)C(O)C(OC)C(=O)NC1CCCCN(C)C1=O (centres undefined) | 7.94 µM (inactive) | 7.71 µM (inactive) | 9.06 µM (inactive) | 3.15 µM (inactive) | 3.95 µM (inactive) | 4.85 µM (inactive) | 3.19 µM (inactive) | 6.5 µM (inactive) | 3.21 µM (inactive) | 1.86 µM (inactive) | 1.34 µM (inactive) | 4.36 µM (inactive) | 8.73 µM (inactive) | 7.05 µM (inactive) | 1.2 µM (inactive) | 9.91 µM (inactive) | > 10 µM (inactive) | 5.28 µM (inactive) | 3.95 µM (inactive) | 5.12 µM (inactive) |
| COC1=CC(=O)c2c(O)c3c(c(O)c2C1=O)C=C(C)OC3O (centres undefined) | 1.57 µM (inactive) | 2.21 µM (inactive) | 7.35 µM (inactive) | 2.88 µM (inactive) | 1.64 µM (inactive) | 2.9 µM (inactive) | 0.269 µM (active) | 2.48 µM (inactive) | 0.859 µM (active) | 1.76 µM (inactive) | 4.04 µM (inactive) | 2.43 µM (inactive) | 1.45 µM (inactive) | 2.89 µM (inactive) | 1.23 µM (inactive) | 0.838 µM (active) | 2.07 µM (inactive) | 0.849 µM (active) | 2.09 µM (inactive) | 1.03 µM (active) |
| COc1ccc(/C=C\c2cc(OC)c(OC)c(OC)c2)cc1OC(=O)NCCN(C)C | 0.000215 µM (active) |  | < 0.0247 µM (active) | 0.000151 µM (active) | 0.000133 µM (active) | 0.0064 µM (active) | < 0.0001 µM (active) | 0.000125 µM (active) | < 0.0001 µM (active) | 0.01 µM (active) | 0.00411 µM (active) | 0.00764 µM (active) | 0.000119 µM (active) | 0.297 µM (active) | < 0.0001 µM (active) | 0.000121 µM (active) | 0.83 µM (active) | 0.000143 µM (active) | 0.000119 µM (active) | 0.000107 µM (active) |
| COc1cc(NCc2ccc3nc(N)nc(N)c3c2C)cc(OC)c1OC | 4.37 µM (inactive) | 0.0478 µM (active) |  | 0.0286 µM (active) | 0.025 µM (active) | 11.4 µM (inactive) | 0.0289 µM (active) | 0.0379 µM (active) | 0.025 µM (active) | 4.03 µM (inactive) | 1.05 µM (active) | 1.85 µM (inactive) |  | 0.0105 µM (active) | 0.025 µM (active) | 0.0453 µM (active) | 0.685 µM (active) | 0.0262 µM (active) | 0.0308 µM (active) | 0.288 µM (active) |
| Cc1cn(C2CC(O)C(CO)O2)c(=O)[nH]c1=O (centres undefined) | 3630 µM (inactive) | > 4930 µM (inactive) | 2380 µM (inactive) | 1380 µM (inactive) | 54.7 µM (inactive) | 3780 µM (inactive) | 4450 µM (inactive) | 1530 µM (inactive) | 843 µM (inactive) | > 3520 µM (inactive) | 3670 µM (inactive) | 4060 µM (inactive) | 1690 µM (inactive) | > 5000 µM (inactive) | 728 µM (inactive) | 1020 µM (inactive) | > 5000 µM (inactive) | 1590 µM (inactive) | 2290 µM (inactive) | 1490 µM (inactive) |
